Test system: RAW264.7
Test: Antiinflammatory activity in mouse RAW264.7 cells assessed as inhibition of LPS-induced NO production incubated for 24 hrs in presence of LPS by Griess reagent-based assay
Format: functional, cell-based
Settings: RAW264.7, 24 h

Row | IC50 [µM] | SMILES
1 | 6.9 | C[C@@H]1C[C@H]2[C@@H]3CCC4=CC(=O)C=C[C@]4(C)[C@@]3(F)[C@@H](O)C[C@]2(C)[C@@]1(O)C(=O)CO [DEXAMETHASONE]
2 | 3.5 | C/C(=C\[C@H]1C[C@@](O)([C@@H]2CC[C@]34C[C@]23C=CC2[C@@]3(C)CC(=O)/C(=C\C(=O)c5ccccc5)C(C)(C)[C@@H]3CC(=O)[C@]24C)C(=O)O1)CO (some centres undefined)
3 | 1.6 | C/C(=C\[C@H]1C[C@@](O)([C@@H]2CC[C@]34C[C@]23C=CC2[C@@]4(C)[C@H](O)C[C@H]3C(C)(C)/C(=C/C(=O)c4ccccc4)C(=O)C[C@]23C)C(=O)O1)CO (some centres undefined)
4 | 11.4 | C/C(=C\[C@H]1C[C@@](O)([C@@H]2CC[C@]34C[C@]23C=CC2[C@]3(C)C(CC(=O)[C@]24C)C(C)(C)[C@@]2(CC(=O)c4ccccc4)O[C@@H]3OC2=O)C(=O)O1)CO (some centres undefined)

— ChEMBL document CHEMBL4825675, “Longipetalol A: A Highly Modified Triterpenoid from Dichapetalum longipetalum” (J Nat Prod, 2021)
